Measured values published in patent publication US4100117A, “Somatostatin analogs and intermediates thereto” (Eli Lilly and Company, priority 1977, dated 1978).
Where a SMILES comes first, the peptide text is derived from it. Bridges are numbered along the chain shown (N, C = ends). [ ]: non-standard residue; d: D form.

Key:
[1] = test system: gastric HCl secretion induced by the C-terminal tetrapeptide of gastrin; assay: in vivo inhibition of gastric acid secretion in dogs with chronic fistula and Heidenhain pouch; design: species or system dog
Procedure: D-Val^1 -somatostatin was tested in dogs for its in vivo inhibition of gastric acid secretion. In six dogs with chronic fistula and Heidenhain pouch, gastric HCl secretion was induced by infusion of the C-terminal tetrapeptide of gastrin at 0.5 μg/kg-hr. Each dog served as its own control, receiving on a separate day only the tetrapeptide. On another day, the six dogs received the tetrapeptide, and, after one hour of steady state secretion of HCl, D-Val^1 -somatostatin was infused at 0.75 μg/kg-hr. for one hour. Collection of gastric acid samples was continued for an additional 1.5 hours at 15 minute intervals. The samples were titrated to pH 7 with an automatic titrator. The maximal inhibitory effect of the D-Val^1 -somatostatin was extrapolated against the dose-response curve of somatostatin, and the relative potency of the analog to that of somatostatin is expressed as percent activity. D-Val^1 -somatostatin inhibited steady state acid secretion induced by the C-terminal tetrapeptide of gastrin by 85.1 ± 6.0% standard error of mean. This effect is equivalent to that of 0.935 μg/kg-hr. of somatostatin. Its activity relative to that of somatostatin thus is 125%.

[2] = test system: gut motility (pylorus, duodenum, antrum pressure); assay: action on gut motility in conscious dogs (intralumenal pressure); type: in vivo, dog; conditions: three conscious dogs; intravenous infusion over ten minutes
Procedure: D-Val^1 -somatostatin also was tested for its action on gut motility in conscious dogs. Three dogs having intralumenal catheters placed in the antrum, duodenum, and pylorus were used. Pressure changes in the gut lumen were recorded on a Visicorder using strain gauges and miniature light beam galvanometers. After a steady state control was established, D-Val^1 -somatostatin was infused intravenously over a ten minute period. […] The minimum effective dose required to increase the pyloric pressure and to decrease the duodenum and antrum pressures was <0.125 μg./kg.-10 minutes. This compares to an activity for somatostatin itself of 0.125 to 0.25 μg./kg.-10 minutes.

[3] = test system: secretion from the pancreas induced by secretin and cholecystokinin; assay: inhibition of pancreatic secretion in dogs with pancreatic and total gastric fistula; type: in vivo, dog; conditions: three dogs; 0.75 μg/kg-hr. for one hour
Procedure: In three dogs having both pancreatic and total gastric fistula, secretion from the pancreas was induced by infusion of secretin at 2 units/kg-hr. and cholecystokinin at 0.45 unit/kg-hr., and secretion of gastric HCl by infusion of tetragastrin at 0.5 μg/kg-hr. After a steady response was established, each dog received D-Val^1 -somatostatin for one hour at 0.75 μg/kg-hr. The peak inhibitory effect expressed as percent change over control for total protein was -51%

[4] = test system: growth hormone secretion; assay: inhibition of pentobarbital-stimulated growth hormone release in rats; type: in vivo, rat; conditions: serum GH 20 minutes after dosing
Procedure: D-Val^1 -somatostatin also was tested for its activity with respect to the release of growth hormone. The procedure which was employed is carried out using normal male SpragueDawley rats weighing 100-120 grams (Laboratory Supply Company, Indianapolis, Indiana). The test is a modification of the method of P. Brazeau, W. Vale, and R. Guilleman, Endocrinology, 94 184 (1974). In this assay, five groups of eight rats each were employed. Sodium pentobarbital was administered intraperitoneally to all of the rats to stimulate growth hormone secretion. One group served as the control and received only saline. Two of the groups received somatostatin, one at 2 μg./rat, subcutaneously, and the other at 50 μg./rat, subcutaneously. The other two groups received D-Val^1 -somatostatin, one at 2 μg./rat, subcutaneously, and the other at 50 μg./rat, subcutaneously. The serum concentration of growth hormone was measured 20 minutes after simultaneous administration of sodium pentobarbital and test compound. The degree of inhibition of serum growth hormone concentration then was determined with respect to the control group, and the relative activities of D-Val^1 -somatostatin and somatostatin itself were compared.

CC(C)[C@@H](N)C(=O)NCC(=O)N[C@H]1CSSC[C@@H](C(=O)O)NC(=O)[C@H](CO)NC(=O)[C@H]([C@@H](C)O)NC(=O)[C@H](Cc2ccccc2)NC(=O)[C@H]([C@@H](C)O)NC(=O)[C@H](CCCCN)NC(=O)[C@H](Cc2c[nH]c3ccccc23)NC(=O)[C@H](Cc2ccccc2)NC(=O)[C@H](Cc2ccccc2)NC(=O)[C@H](CC(N)=O)NC(=O)[C@H](CCCCN)NC1=O [D-Val^1 -somatostatin] (H-[dV]GCKNFFWKTFTSC-OH; disulfide 3-14)
equivalent dose of somatostatin giving the same effect ([1]; extrapolated against the dose-response curve of somatostatin, analog at 0.75 μg/kg-hr.): 0.935 μg/kg-hr. | activity relative to that of somatostatin ([1]; gastric acid secretion, dogs): 125% | inhibition of steady state acid secretion induced by the C-terminal tetrapeptide of gastrin ([1]; six dogs, infused at 0.75 μg/kg-hr. for one hour, maximal inhibitory effect, ± standard error of mean): 85.1 ± 6.0% | effect on intralumenal pressure [2]: initially increased the intralumenal pressure in the pylorus and then decreased it whereas the pressure in the duodenum and the antrum remained depressed throughout the test | minimum effective dose required to increase the pyloric pressure and to decrease the duodenum and antrum pressures [2]: < 0.125 μg./kg.-10 minutes | peak inhibitory effect expressed as percent change over control for total protein [3]: -51% | inhibition of the increase in growth hormone secretion over control ([4]; 2 μg./rat subcutaneously): 2% | inhibition of the increase in growth hormone secretion over control ([4]; 50 μg./rat subcutaneously): 73%
